Source: ChEMBL document CHEMBL3351422, “Discovery of N-substituted 7-azaindoline derivatives as potent, orally available M1 and M4 muscarinic acetylcholine receptors selective agonists” (Bioorg Med Chem Lett, 2014)

Assays:
[1] = Clearance in monkey at 0.25 mg/kg, iv and 2.5 mg/kg, po; assay type: ADME, organism-based, Macaca mulatta; settings: rhesus monkey, in vivo
Rattus norvegicus [2] = species: Rattus norvegicus; test: Inhibition of rat N-type calcium channel at 3 uM by radioligand binding assay
Homo sapiens = species: Homo sapiens; test: Inhibition of human nicotinic acetylcholine receptor at 3 uM by radioligand binding assay
[3] = biological target: Somatostatin receptor type 4 (Homo sapiens) (UniProt P31391); test: Inhibition of human SST4 receptor at 3 uM by radioligand binding assay
Sequence of Somatostatin receptor type 4 (Homo sapiens) (P31391 whole entry): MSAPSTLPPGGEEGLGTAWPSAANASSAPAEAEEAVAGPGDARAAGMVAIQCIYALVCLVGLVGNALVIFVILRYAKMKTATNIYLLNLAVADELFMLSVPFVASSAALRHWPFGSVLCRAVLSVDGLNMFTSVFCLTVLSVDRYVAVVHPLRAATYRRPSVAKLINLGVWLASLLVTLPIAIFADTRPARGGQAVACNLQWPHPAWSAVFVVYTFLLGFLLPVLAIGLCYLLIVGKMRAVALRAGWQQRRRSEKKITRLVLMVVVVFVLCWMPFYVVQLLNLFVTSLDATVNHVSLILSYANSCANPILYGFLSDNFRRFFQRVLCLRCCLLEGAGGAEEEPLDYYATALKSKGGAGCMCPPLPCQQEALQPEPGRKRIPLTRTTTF

[4] = biological target: Adenosine receptor A1 (Homo sapiens) (UniProt P30542); test: Inhibition of human adenosine A1 receptor at 3 uM by radioligand binding assay
Sequence of Adenosine receptor A1 (Homo sapiens) (P30542 whole entry): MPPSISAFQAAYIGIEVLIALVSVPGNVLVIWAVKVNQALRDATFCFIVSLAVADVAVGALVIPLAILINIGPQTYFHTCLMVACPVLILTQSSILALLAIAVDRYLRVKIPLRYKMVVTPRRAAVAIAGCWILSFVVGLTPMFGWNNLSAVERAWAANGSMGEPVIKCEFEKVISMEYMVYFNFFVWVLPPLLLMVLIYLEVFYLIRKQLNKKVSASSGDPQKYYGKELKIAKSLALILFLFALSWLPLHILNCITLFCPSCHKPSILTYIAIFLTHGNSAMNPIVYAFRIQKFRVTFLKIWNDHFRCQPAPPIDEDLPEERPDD

[5] = biological target: D(4) dopamine receptor (Homo sapiens) (UniProt P21917); test: Inhibition of human dopamine D4.2 receptor at 3 uM by radioligand binding assay
Sequence of D(4) dopamine receptor (Homo sapiens) (P21917 whole entry): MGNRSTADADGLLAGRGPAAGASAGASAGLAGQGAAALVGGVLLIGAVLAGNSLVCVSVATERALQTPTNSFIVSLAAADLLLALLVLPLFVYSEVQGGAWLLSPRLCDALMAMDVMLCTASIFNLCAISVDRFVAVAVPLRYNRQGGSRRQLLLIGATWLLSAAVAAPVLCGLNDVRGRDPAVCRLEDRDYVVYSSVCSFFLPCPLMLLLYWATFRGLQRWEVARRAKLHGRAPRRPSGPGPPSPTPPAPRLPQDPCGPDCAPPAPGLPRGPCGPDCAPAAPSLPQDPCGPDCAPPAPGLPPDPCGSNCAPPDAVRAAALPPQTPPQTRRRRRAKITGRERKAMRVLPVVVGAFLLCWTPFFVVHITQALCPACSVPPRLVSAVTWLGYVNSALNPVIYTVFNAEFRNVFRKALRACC

[6] = Oral bioavailability in rat at 2.5 mg/kg; assay type: ADME, organism-based; settings: in vivo
[7] = biological target: Neuropeptide Y receptor type 1 (Homo sapiens) (UniProt P25929); test: Inhibition of human neuropeptide YY1 receptor at 3 uM by radioligand binding assay
Sequence of Neuropeptide Y receptor type 1 (Homo sapiens) (P25929 whole entry): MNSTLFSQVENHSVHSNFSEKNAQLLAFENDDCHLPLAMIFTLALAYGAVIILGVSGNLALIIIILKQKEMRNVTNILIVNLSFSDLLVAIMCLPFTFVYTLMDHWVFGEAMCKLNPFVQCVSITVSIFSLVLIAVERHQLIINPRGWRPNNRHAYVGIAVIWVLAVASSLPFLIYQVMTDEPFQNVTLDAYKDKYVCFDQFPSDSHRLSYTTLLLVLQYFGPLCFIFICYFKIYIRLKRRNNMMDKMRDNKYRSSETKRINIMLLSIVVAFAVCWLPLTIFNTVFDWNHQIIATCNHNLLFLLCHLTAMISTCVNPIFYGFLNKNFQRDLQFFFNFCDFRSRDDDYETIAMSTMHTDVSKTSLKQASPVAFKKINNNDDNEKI

[8] = biological target: D(2) dopamine receptor (Homo sapiens) (UniProt P14416); test: Inhibition of human dopamine D2S receptor at 3 uM by radioligand binding assay
Sequence of D(2) dopamine receptor (Homo sapiens) (P14416 whole entry): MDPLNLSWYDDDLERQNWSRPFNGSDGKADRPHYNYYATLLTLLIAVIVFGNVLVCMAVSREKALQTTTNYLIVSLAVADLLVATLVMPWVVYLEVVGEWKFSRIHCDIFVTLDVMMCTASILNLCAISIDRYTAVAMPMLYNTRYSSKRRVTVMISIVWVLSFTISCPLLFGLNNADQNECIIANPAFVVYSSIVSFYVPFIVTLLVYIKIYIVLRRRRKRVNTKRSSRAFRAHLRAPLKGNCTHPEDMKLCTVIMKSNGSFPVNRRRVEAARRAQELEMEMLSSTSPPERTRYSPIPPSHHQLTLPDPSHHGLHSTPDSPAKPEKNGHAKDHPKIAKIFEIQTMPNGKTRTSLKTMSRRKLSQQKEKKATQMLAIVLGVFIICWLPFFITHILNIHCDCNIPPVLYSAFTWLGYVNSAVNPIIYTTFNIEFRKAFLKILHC

[9] = biological target: L-type calcium channel, benzothiazepine binding site (Rattus norvegicus, UniProt P22002+P27732+Q02485); test: Inhibition of rat L-type calcium channel benzothiazepine binding site at 3 uM by radioligand binding assay; assay type: protein assay
[10] = biological target: Histamine H1 receptor (Homo sapiens) (UniProt P35367); test: Inhibition of human histamine H1 receptor at 3 uM by radioligand binding assay
[11] = biological target: 5-hydroxytryptamine receptor 3A (Homo sapiens) (UniProt P46098); test: Inhibition of human 5-HT3 receptor at 3 uM by radioligand binding assay
Sequence of 5-hydroxytryptamine receptor 3A (Homo sapiens) (P46098 whole entry): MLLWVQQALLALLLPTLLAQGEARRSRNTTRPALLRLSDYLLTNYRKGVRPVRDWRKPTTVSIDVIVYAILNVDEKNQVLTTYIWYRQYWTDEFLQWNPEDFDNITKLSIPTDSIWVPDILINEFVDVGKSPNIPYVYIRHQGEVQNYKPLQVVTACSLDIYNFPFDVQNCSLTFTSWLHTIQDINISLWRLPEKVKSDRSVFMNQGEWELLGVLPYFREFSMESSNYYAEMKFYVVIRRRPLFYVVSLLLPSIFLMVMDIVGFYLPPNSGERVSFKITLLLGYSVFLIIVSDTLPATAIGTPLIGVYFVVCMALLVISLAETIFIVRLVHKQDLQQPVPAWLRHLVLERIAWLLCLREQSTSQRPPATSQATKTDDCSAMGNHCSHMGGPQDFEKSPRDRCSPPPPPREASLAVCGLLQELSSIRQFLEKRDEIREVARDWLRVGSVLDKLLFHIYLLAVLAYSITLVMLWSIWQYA

[12] = biological target: Sodium-dependent dopamine transporter (Homo sapiens) (UniProt Q01959); test: Inhibition of human DAT at 3 uM by radioligand binding assay
Sequence of Sodium-dependent dopamine transporter (Homo sapiens) (Q01959 whole entry): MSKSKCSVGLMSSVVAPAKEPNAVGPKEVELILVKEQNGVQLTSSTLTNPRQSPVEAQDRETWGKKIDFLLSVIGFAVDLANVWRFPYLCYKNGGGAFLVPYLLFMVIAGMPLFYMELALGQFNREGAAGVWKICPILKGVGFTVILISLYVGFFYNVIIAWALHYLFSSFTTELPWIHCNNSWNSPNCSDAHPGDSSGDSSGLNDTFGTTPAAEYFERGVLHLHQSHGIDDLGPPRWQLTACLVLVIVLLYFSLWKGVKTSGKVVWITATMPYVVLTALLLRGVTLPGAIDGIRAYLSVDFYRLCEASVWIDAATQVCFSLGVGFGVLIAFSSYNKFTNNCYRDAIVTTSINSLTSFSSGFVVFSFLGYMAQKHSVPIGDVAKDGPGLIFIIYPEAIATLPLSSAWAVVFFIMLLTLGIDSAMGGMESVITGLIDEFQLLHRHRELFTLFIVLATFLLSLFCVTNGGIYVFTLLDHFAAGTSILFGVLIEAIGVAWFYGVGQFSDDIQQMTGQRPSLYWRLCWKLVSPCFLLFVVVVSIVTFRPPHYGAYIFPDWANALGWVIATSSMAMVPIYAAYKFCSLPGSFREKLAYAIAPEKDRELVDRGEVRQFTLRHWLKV

[13] = biological target: T1, Muscarinic acetylcholine receptor M2 (Homo sapiens) (UniProt P08172); test: Intrinsic activity at muscarinic M2 receptor (unknown origin) at 10 uM by calcium mobilization assay; assay type: functional
T1 sequence (whole entry): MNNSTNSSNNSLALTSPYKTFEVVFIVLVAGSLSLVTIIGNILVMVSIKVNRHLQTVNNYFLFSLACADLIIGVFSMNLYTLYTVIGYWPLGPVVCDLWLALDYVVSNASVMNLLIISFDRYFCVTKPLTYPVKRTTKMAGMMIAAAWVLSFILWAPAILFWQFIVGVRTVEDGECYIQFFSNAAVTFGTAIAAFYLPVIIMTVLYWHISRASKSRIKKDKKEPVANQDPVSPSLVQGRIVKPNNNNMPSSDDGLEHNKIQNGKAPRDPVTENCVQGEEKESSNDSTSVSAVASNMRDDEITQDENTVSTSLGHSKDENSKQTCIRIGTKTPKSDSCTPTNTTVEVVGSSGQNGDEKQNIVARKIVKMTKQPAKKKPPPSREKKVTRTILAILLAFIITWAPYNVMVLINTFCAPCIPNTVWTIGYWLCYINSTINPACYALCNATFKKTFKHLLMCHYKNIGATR

[14] = biological target: Phosphodiesterase 4 (Homo sapiens) (UniProt P27815+Q08499+Q07343+Q08493); test: Inhibition of human PDE4 at 3 uM by radioligand binding assay; assay type: protein assay
[15] = biological target: Neuronal acetylcholine receptor subunit alpha-7 (Rattus norvegicus) (UniProt Q05941); test: Inhibition of rat nAChR alpha7 at 3 uM by methyllycaconitine binding assay
Sequence of Neuronal acetylcholine receptor subunit alpha-7 (Rattus norvegicus) (Q05941 whole entry): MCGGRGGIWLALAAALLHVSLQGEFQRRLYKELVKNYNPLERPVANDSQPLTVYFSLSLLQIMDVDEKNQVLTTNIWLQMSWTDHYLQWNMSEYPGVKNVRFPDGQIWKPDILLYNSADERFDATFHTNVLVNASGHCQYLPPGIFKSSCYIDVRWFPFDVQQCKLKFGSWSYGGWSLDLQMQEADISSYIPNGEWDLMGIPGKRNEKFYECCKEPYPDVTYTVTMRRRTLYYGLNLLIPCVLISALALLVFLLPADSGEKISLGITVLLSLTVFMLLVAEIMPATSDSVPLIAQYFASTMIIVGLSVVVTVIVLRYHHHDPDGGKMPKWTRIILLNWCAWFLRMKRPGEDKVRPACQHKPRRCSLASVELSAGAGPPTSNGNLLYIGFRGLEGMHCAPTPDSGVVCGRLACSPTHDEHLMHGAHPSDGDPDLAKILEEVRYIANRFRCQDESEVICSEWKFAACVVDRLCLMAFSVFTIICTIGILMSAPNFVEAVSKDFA

[16] = biological target: Muscarinic acetylcholine receptor M3 (Homo sapiens) (UniProt P20309); test: Intrinsic activity at muscarinic M3 receptor (unknown origin) at 10 uM by calcium mobilization assay; assay type: functional
Sequence of Muscarinic acetylcholine receptor M3 (Homo sapiens) (P20309 whole entry, looked up): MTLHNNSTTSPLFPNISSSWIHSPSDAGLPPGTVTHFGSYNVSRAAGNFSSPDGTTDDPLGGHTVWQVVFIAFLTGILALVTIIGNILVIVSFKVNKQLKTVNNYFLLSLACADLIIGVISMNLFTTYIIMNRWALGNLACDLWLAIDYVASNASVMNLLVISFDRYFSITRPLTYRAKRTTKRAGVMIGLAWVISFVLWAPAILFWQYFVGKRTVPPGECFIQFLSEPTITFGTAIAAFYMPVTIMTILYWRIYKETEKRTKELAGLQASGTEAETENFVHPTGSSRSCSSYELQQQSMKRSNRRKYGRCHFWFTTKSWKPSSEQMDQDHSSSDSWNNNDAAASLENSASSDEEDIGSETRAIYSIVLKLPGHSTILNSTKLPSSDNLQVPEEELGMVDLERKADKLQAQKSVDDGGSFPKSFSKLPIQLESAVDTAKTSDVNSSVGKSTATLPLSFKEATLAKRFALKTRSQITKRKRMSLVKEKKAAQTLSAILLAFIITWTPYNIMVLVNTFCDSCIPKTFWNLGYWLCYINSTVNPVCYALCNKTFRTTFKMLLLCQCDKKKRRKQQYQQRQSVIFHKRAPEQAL

[17] = Clearance in rat at 0.25 mg/kg, iv and 2.5 mg/kg, po; assay type: ADME, organism-based; settings: in vivo
Rattus norvegicus [18] = species: Rattus norvegicus; test: Inhibition of rat GABAA central type receptor muscimol binding site at 3 uM by radioligand binding assay
[19] = biological target: Kappa-type opioid receptor (Homo sapiens) (UniProt P41145); test: Inhibition of human kappa opioid receptor at 3 uM by radioligand binding assay
Sequence of Kappa-type opioid receptor (Homo sapiens) (P41145 whole entry): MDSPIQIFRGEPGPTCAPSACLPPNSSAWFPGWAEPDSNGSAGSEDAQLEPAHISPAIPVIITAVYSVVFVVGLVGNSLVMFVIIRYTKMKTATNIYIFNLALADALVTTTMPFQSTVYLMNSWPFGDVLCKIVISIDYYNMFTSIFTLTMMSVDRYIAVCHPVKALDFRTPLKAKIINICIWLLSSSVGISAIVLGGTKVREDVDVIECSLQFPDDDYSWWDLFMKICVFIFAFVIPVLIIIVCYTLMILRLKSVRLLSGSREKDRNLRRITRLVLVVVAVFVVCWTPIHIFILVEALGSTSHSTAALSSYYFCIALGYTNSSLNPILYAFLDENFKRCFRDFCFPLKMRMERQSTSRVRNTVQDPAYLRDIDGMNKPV

[20] = Lipophilicity, log P of the compound; assay type: physicochemical; settings: octanol/water
[21] = biological target: T2, Muscarinic acetylcholine receptor M4 (Homo sapiens) (UniProt P08173); test: Agonist activity at muscarinic M4 receptor (unknown origin) at 0.3 uM by calcium mobilization assay; assay type: functional
T2 sequence (whole entry): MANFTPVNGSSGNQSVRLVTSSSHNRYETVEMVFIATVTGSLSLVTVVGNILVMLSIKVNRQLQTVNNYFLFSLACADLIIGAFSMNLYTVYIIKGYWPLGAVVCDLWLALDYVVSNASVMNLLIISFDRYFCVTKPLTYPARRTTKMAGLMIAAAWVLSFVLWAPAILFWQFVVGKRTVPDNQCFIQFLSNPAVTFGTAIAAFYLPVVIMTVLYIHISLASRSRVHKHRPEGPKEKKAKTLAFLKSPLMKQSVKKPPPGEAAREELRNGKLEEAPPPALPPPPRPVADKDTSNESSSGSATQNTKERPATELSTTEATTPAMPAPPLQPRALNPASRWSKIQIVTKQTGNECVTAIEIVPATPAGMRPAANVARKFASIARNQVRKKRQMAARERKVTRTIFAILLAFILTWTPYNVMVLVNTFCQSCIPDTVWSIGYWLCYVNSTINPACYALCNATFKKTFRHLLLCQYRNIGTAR

[22] = biological target: T1, Muscarinic acetylcholine receptor M2 (Homo sapiens); test: Agonist activity at muscarinic M2 receptor (unknown origin) at 0.3 uM by calcium mobilization assay; assay type: functional
[23] = biological target: T3, Muscarinic acetylcholine receptor M1 (Homo sapiens) (UniProt P11229); test: Agonist activity at muscarinic M1 receptor (unknown origin) at 0.3 uM by calcium mobilization assay; assay type: functional
T3 sequence (whole entry): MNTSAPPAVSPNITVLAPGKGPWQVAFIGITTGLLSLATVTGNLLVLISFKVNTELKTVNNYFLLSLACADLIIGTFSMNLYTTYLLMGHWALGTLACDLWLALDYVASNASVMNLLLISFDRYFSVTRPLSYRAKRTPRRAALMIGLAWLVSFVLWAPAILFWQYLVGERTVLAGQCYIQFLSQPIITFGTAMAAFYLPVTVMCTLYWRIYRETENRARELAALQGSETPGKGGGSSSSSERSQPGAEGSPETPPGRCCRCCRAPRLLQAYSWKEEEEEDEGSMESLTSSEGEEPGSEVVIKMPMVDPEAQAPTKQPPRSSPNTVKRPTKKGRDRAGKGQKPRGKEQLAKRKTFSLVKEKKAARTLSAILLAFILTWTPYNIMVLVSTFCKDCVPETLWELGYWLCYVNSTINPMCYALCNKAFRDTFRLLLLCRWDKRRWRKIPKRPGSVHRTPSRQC

[24] = biological target: Mu-type opioid receptor (Homo sapiens) (UniProt P35372); test: Inhibition of human mu opioid receptor at 3 uM by radioligand binding assay
[25] = biological target: Delta-type opioid receptor (Homo sapiens) (UniProt P41143); test: Inhibition of human delta opioid receptor at 3 uM by radioligand binding assay
Sequence of Delta-type opioid receptor (Homo sapiens) (P41143 whole entry): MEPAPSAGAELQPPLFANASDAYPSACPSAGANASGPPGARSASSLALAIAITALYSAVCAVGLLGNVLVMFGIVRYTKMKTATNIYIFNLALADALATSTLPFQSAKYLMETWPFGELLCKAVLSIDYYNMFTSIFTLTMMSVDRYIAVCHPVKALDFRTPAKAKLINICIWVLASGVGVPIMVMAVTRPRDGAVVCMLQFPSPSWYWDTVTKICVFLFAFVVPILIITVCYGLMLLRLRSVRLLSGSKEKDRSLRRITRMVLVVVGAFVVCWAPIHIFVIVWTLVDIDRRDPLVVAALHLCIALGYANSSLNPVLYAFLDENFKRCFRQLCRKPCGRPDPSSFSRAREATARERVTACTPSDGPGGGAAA

Question: For `CCOC(=O)N1CCC(CN2CCC3(CC2)CN(C(=O)N(C)C)c2ncccc23)CC1.O=C(O)/C=C/C(=O)O`, which clearance [1] is on record?
Answer: The clearance was 16.5 mL/min/kg.

Question: And the inhibition (Rattus norvegicus [2])?
Answer: Its inhibition is 4%.

Question: And the inhibition (Homo sapiens)?
Answer: Its inhibition is 9%.

Question: And the inhibition [3]?
Answer: Its inhibition is -10%.

Question: What about the inhibition [4] of the same compound?
Answer: The inhibition was 15%.

Question: What about the inhibition [5] of the same compound?
Answer: Its inhibition is 4%.

Question: And the bioavailability [6]?
Answer: The bioavailability was 51.1%.

Question: And the inhibition [7]?
Answer: Its inhibition is -2%.

Question: What about the inhibition [8] of the same compound?
Answer: The inhibition was 2%.

Question: And the inhibition at 3 µM [9]?
Answer: The inhibition at 3 µM was -21%.

Question: And the inhibition [10]?
Answer: The inhibition was -2%.

Question: What about the inhibition [11] of the same compound?
Answer: Its inhibition is -10%.

Question: And the inhibition [12]?
Answer: The inhibition was -2%.

Question: What about the Intrinsic activity [13] of the same compound?
Answer: Its Intrinsic activity is 5%.

Question: What about the inhibition [14] of the same compound?
Answer: The inhibition was -5%.

Question: What about the inhibition [15] of the same compound?
Answer: The inhibition was 13%.

Question: And the Intrinsic activity [16]?
Answer: Its Intrinsic activity is 2%.

Question: And the clearance [17]?
Answer: The clearance was 28.4 mL/min/kg.

Question: What about the inhibition (Rattus norvegicus [18]) of the same compound?
Answer: Its inhibition is 2%.

Question: What about the inhibition [19] of the same compound?
Answer: The inhibition was 7%.

Question: And the logP [20]?
Answer: Its logP is 1.3.

Question: And the Activity [21]?
Answer: The Activity was 118%.

Question: What about the Activity [22] of the same compound?
Answer: The Activity was 10%.

Question: And the Activity [23]?
Answer: Its Activity is 76%.

Question: What about the inhibition [24] of the same compound?
Answer: The inhibition was 3%.

Question: And the inhibition [25]?
Answer: The inhibition was -1%.
